Several values for one entry are separate records, joined by “and”; a condition that tells them apart may be missing. Identical values can stand only once.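 Assay format: 96-well plates, 48-hour exposure. Here, GI50 denotes the concentration required for 50% inhibition of growth. TGI denotes the concentration required for complete inhibition of growth.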
What was measured:
Assay in all cases: NCI anticancer screen, dose series, 48 h
[1] = system: CCRF-CEM leukemia
[2] = system: LOX IMVI melanoma
[3] = system: SF-268 CNS
[4] = system: HCT-116 colon
[5] = system: MALME-3M melanoma
[6] = system: SK-OV-3 ovarian
[7] = system: A498 renal
[8] = system: RPMI-8226 leukemia
[9] = system: EKVX NSCLC
[10] = system: RXF 393 renal

Structure (SMILES) | GI50 [1] | TGI [1] | GI50 [2] | TGI [2] | GI50 [3] [µM] | TGI [3] [µM] | GI50 [4] | TGI [4] | GI50 [5] | TGI [5] | GI50 [6] [µM] | TGI [6] [µM] | GI50 [7] | TGI [7] | GI50 [8] | TGI [8] | GI50 [9] | TGI [9] | GI50 [10] | TGI [10]
CC(C)[C@H](O)C(=O)N[C@@H](C)C(=O)N[C@@H]1C(=O)N(C)CCc2ccccc21 | > 100 µM | > 100 µM | > 100 µM | > 100 µM | > 100 | > 100 | > 100 µM | > 100 µM | > 100 µM | > 100 µM | > 100 | > 100 | > 100 µM | > 100 µM | > 100 µM | > 100 µM | > 100 µM | > 100 µM | > 100 µM | > 100 µM
CCOC(=O)NC(=O)c1cn(C2CCCCC2)c(=O)[nH]c1=O |  | > 100 µM |  | > 100 µM |  | > 100 |  | > 100 µM |  | > 100 µM |  | > 100 |  | > 100 µM |  | > 100 µM |  | > 100 µM |  | 
N[C@H](CCC(=O)N[C@@H](Cc1c[nH]c2ccccc12)C(=O)O)C(=O)O | > 100 µM | > 100 µM | > 100 µM | > 100 µM | > 100 | > 100 | > 100 µM | > 100 µM | > 100 µM | > 100 µM | > 100 | > 100 | > 100 µM | > 100 µM | > 100 µM | > 100 µM | > 100 µM | > 100 µM | > 100 µM | > 100 µM
CC(C)CCC[C@@H](C)C1CCC2[C@@H]3CC=C4C[C@@H](C(=O)NCCN(C)C)CC[C@]4(C)C3CC[C@@]21C (stereo not given in full) |  | 73.1 µM |  | > 100 µM |  | > 100 |  |  |  | > 100 µM |  | > 100 |  | > 100 µM |  | 94 µM |  | > 100 µM |  | > 100 µM
CC(C)(C)c1ccc2c(c1)S(=O)(=O)Nc1ccc(Cl)cc1NS(=O)(=O)c1cc(C(C)(C)C)ccc1OCCOCCOCCO2 |  | > 100 µM |  | > 100 µM |  | > 100 |  | > 100 µM |  | 80 µM |  | 86.3 |  | > 100 µM |  |  |  | > 100 µM |  | 79.1 µM
Nc1ccccc1O.O.O=C(O)C1[O][Sb][O]C1C(=O)O (stereo not given) | 0.713 µM |  | 8.59 µM | 29.9 µM | 17.5 | > 53.4 | 17.8 µM | 39.6 µM | 1.65 µM | 4.97 µM | 88.3 | > 100 | > 90.3 µM | > 100 µM | 1.51 µM | 6.56 µM | 18.1 µM | 38.9 µM | 6.35 µM | 16.7 µM
ClC(Cl)=C1C(=C(Cl)Cl)C(Cl)(Cl)C1(Cl)Cl | 0.334 µM | 1.5 µM |  | 0.579 µM and 1.86 µM |  | 9.22 |  | 3.73 µM |  | 5.9 µM |  | 28.8 |  | 26 µM |  | 3.69 µM |  | 16.6 µM |  | 3.26 µM
COc1ccc(C(CC(=O)c2ccc3c(c2)OCO3)c2c(O)c3ccccc3oc2=O)cc1OC (stereo not given) |  | > 100 µM |  | > 100 µM |  | > 100 |  | > 100 µM |  | > 100 µM |  | > 100 |  | > 100 µM |  | > 100 µM |  | > 100 µM |  | > 100 µM
COC(=O)c1cc2c(o1)-c1nccc3c1c(nc1ccccc13)C2=O | 3.79 µM | 15.5 µM | 3.61 µM | 16.2 µM | 2.82 | 24.2 | 1.92 µM | 5.95 µM | 1.89 µM | 5.96 µM | 10.7 | 39.8 | 18 µM | 39.1 µM | 2.03 µM | 18 µM | 14.9 µM | 35 µM |  | 
CCC(C)(O)c1cnc(CC(C)C)c(=O)n1O (stereo not given) |  | 54.1 µM |  | > 100 µM |  | > 100 |  | > 100 µM |  |  |  | > 100 |  | > 100 µM |  | 28.5 µM |  | > 100 µM |  | > 100 µM
COC(=O)C1C(O)C(C(=O)OC)C(C)N(C)C1C (stereo not given) |  | > 100 µM |  | > 100 µM |  |  |  | > 100 µM |  |  |  | > 100 |  | > 100 µM |  | > 100 µM |  | > 100 µM |  | > 100 µM
O=C(Nc1cc(Nc2ncccc2-c2ncnc3nc[nH]c23)ccc1F)c1cc(C(F)(F)F)cc(C(F)(F)F)c1 | 2.97 µM | > 10 µM | 0.384 µM | 2.02 µM | 3.17 | > 10 | 0.601 µM | 2.72 µM | 0.152 µM | 0.542 µM | 2.78 | 9.19 | 0.648 µM | 3.92 µM | 2.12 µM | 6.4 µM | 4.1 µM | > 10 µM | 1.91 µM | 4.62 µM
CCNC(=O)/C(=C/c1ccc(OC)cc1)c1cc(OC)c(OC)c(OC)c1 |  | > 100 µM |  | > 100 µM |  | > 100 |  | > 100 µM |  | > 100 µM |  | > 100 |  | > 63.8 µM |  | > 100 µM |  | > 100 µM |  | 11.2 µM
COC(=O)C1=COC(C)C2CN3CCc4c([nH]c5ccccc45)C3CC12 (stereo not given) | 20.1 µM and 50.5 µM | 58.5 µM and > 100 µM | 18.5 µM and > 100 µM | 45.5 µM and > 100 µM |  | > 100 | 19 µM and > 100 µM | 45.4 µM and > 100 µM | 14.4 µM and 49.5 µM | 45.5 µM and > 100 µM |  | > 100 | 21.1 µM and 74.9 µM | 49.7 µM and > 100 µM | 14.6 µM and 69 µM | 56 µM and > 100 µM | 17.8 µM and > 100 µM | 80.9 µM and > 100 µM | 17.3 µM and > 100 µM | 69.9 µM and > 100 µM
Nc1ccccc1C(=O)/C=C/c1c(O)ccc2ccccc12 |  | > 100 µM |  | 44.9 µM |  | > 100 |  | > 100 µM |  | > 100 µM |  | > 100 |  | > 100 µM |  | > 100 µM |  | > 100 µM |  | > 100 µM
COc1cc2c(Nc3cc(Cl)c(OC)c(Cl)c3)c(C#N)cnc2cc1OCCCN1CCN(C)CC1 | 2.04 µM | 10.8 µM | 1.06 µM | 2.43 µM | 1.9 | 6.92 | 1.21 µM | 3.49 µM | 1.6 µM | 3.7 µM | 0.378 | 16.6 | 0.904 µM | 2.61 µM | 1.47 µM | 4.79 µM | 1.17 µM | 18.9 µM | 1.01 µM | 2.5 µM

Source: PubChem BioAssay (NCI)
